Values quoted from earlier work, collected in patent US20250092340A1, “METHOD FOR INDUSTRIALLY PRODUCING MOGROSIDE, FRUCTUS MOMORDICAE SUGAR/WINE AND MANNITOL FROM FRESH FRUCTUS MOMORDICAE” (priority 2022, published 2025).

Details: background statement

In the case of `C[C@H](CC[C@@H](O[C@@H]1O[C@H](CO)[C@@H](O)[C@H](O)[C@H]1O[C@@H]1O[C@H](CO)[C@@H](O)[C@H](O)[C@H]1O)C(C)(C)O)[C@H]1CC[C@@]2(C)[C@H]3CC=C4[C@@H](CC[C@H](O[C@@H]5O[C@H](CO[C@@H]6O[C@H](CO)[C@@H](O)[C@H](O)[C@H]6O)[C@@H](O)[C@H](O)[C@H]5O)C4(C)C)[C@]3(C)[C@H](O)C[C@]12C` [mogroside IV], the “sweetness relative to sucrose” value is given as 126 folds of that of sucrose.
In the case of `C[C@H](CC[C@@H](O[C@@H]1O[C@H](CO[C@@H]2O[C@H](CO)[C@@H](O)[C@H](O)[C@H]2O)[C@@H](O)[C@H](O)[C@H]1O[C@@H]1O[C@H](CO)[C@@H](O)[C@H](O)[C@H]1O)C(C)(C)O)[C@H]1CC[C@@]2(C)[C@@H]3CC=C4[C@@H](CC[C@H](O[C@@H]5O[C@H](CO[C@@H]6O[C@H](CO)[C@@H](O)[C@H](O)[C@H]6O)[C@@H](O)[C@H](O)[C@H]5O)C4(C)C)[C@]3(C)[C@H](O)C[C@]12C` [mogroside V], the “sweetness relative to sucrose” value is listed as 256-344 folds of that of sucrose.
